Test results published in ChEMBL document CHEMBL3091428, “Synthesis and initial biological evaluation of substituted 1-phenylamino-2-thio-4,5-dimethyl-1H-imidazole derivatives” (Bioorg Med Chem Lett, 2013).
Converted amounts (≈) assume the structure as drawn.

Assays:
Format in all cases: functional
Pseudomonas aeruginosa = assay: Antimicrobial activity against Pseudomonas aeruginosa ATCC 27853 after 24 hrs by broth microdilution method; settings: ATCC 27853, 24 h
Klebsiella pneumoniae = assay: Antimicrobial activity against Klebsiella pneumoniae ATCC 13883 after 24 hrs by broth microdilution method; settings: ATCC 13883, 24 h
Nakaseomyces glabratus = assay: Antimicrobial activity against Candida glabrata ATCC 90030 after 24 hrs by broth microdilution method; settings: ATCC 90030, 24 h
Escherichia coli [1] = assay: Antimicrobial activity against Escherichia coli ATCC 25922 after 24 hrs by broth microdilution method; settings: ATCC 25922, 24 h
Escherichia coli [2] = assay: Antimicrobial activity against Escherichia coli ATCC 35218 after 24 hrs by broth microdilution method; settings: ATCC 35218, 24 h
Enterococcus faecalis [3] = assay: Antimicrobial activity against Enterococcus faecalis ATCC 29212 after 24 hrs by broth microdilution method; settings: ATCC 29212, 24 h
Listeria monocytogenes = assay: Antimicrobial activity against Listeria monocytogenes ATCC 19115 after 24 hrs by broth microdilution method; settings: ATCC 19115, 24 h
Enterococcus faecalis [4] = assay: Antimicrobial activity against Enterococcus faecalis ATCC 51299 after 24 hrs by broth microdilution method; settings: ATCC 51299, 24 h
Candida albicans = assay: Antimicrobial activity against Candida albicans ATCC 90028 after 24 hrs by broth microdilution method; settings: ATCC 90028, 24 h
Staphylococcus aureus = assay: Antimicrobial activity against Staphylococcus aureus ATCC 25923 after 24 hrs by broth microdilution method; settings: ATCC 25923, 24 h
Pichia kudriavzevii = assay: Antimicrobial activity against Candida krusei ATCC 6258 after 24 hrs by broth microdilution method; settings: ATCC 6258, 24 h

MIC (Pseudomonas aeruginosa) | MIC (Klebsiella pneumoniae) | MIC (Nakaseomyces glabratus) | MIC (Escherichia coli [1]) | MIC (Escherichia coli [2]) | MIC (Enterococcus faecalis [3]) | MIC (Listeria monocytogenes) | MIC (Enterococcus faecalis [4]) | MIC (Candida albicans) | MIC (Staphylococcus aureus) | MIC (Pichia kudriavzevii) | SMILES
400 µg/mL (≈ 984 µM) | 800 µg/mL (≈ 1970 µM) | 800 µg/mL (≈ 1970 µM) | 800 µg/mL (≈ 1970 µM) | 800 µg/mL (≈ 1970 µM) | 800 µg/mL (≈ 1970 µM) | 800 µg/mL (≈ 1970 µM) | 800 µg/mL (≈ 1970 µM) | 800 µg/mL (≈ 1970 µM) | 800 µg/mL (≈ 1970 µM) | 400 µg/mL (≈ 984 µM) | Cc1nc(SCC(=O)c2ccc(Cl)cc2)n(Nc2ccc(Cl)cc2)c1C
400 µg/mL (≈ 1090 µM) | 400 µg/mL (≈ 1090 µM) | 400 µg/mL (≈ 1090 µM) | 400 µg/mL (≈ 1090 µM) | 800 µg/mL (≈ 2180 µM) | 800 µg/mL (≈ 2180 µM) | 800 µg/mL (≈ 2180 µM) | 800 µg/mL (≈ 2180 µM) | 400 µg/mL (≈ 1090 µM) | 800 µg/mL (≈ 2180 µM) | 400 µg/mL (≈ 1090 µM) | COc1cccc(C(=O)CSc2nc(C)c(C)n2Nc2ccccc2)c1
800 µg/mL (≈ 2060 µM) | 800 µg/mL (≈ 2060 µM) | 400 µg/mL (≈ 1030 µM) | 800 µg/mL (≈ 2060 µM) | 800 µg/mL (≈ 2060 µM) | 400 µg/mL (≈ 1030 µM) | 800 µg/mL (≈ 2060 µM) | 200 µg/mL (≈ 516 µM) | 200 µg/mL (≈ 516 µM) | 800 µg/mL (≈ 2060 µM) | 100 µg/mL (≈ 258 µM) | Cc1ccc(Nn2c(SCC(=O)c3ccc(F)c(F)c3)nc(C)c2C)cc1
800 µg/mL (≈ 2070 µM) | 800 µg/mL (≈ 2070 µM) | 800 µg/mL (≈ 2070 µM) | 800 µg/mL (≈ 2070 µM) | 800 µg/mL (≈ 2070 µM) | 800 µg/mL (≈ 2070 µM) | 800 µg/mL (≈ 2070 µM) | 800 µg/mL (≈ 2070 µM) | 800 µg/mL (≈ 2070 µM) | 800 µg/mL (≈ 2070 µM) | 800 µg/mL (≈ 2070 µM) | Cc1ccc(Nn2c(SCC(=O)c3cccc(Cl)c3)nc(C)c2C)cc1
400 µg/mL (≈ 1010 µM) | 400 µg/mL (≈ 1010 µM) | 800 µg/mL (≈ 2010 µM) | 800 µg/mL (≈ 2010 µM) | 200 µg/mL (≈ 503 µM) | 400 µg/mL (≈ 1010 µM) | 400 µg/mL (≈ 1010 µM) | 800 µg/mL (≈ 2010 µM) | 200 µg/mL (≈ 503 µM) | 200 µg/mL (≈ 503 µM) | 50 µg/mL (≈ 126 µM) | COc1ccc(C(=O)CSc2nc(C)c(C)n2Nc2ccccc2)cc1OC
1600 µg/mL (≈ 4100 µM) | 800 µg/mL (≈ 2050 µM) | 1600 µg/mL (≈ 4100 µM) | 1600 µg/mL (≈ 4100 µM) | 1600 µg/mL (≈ 4100 µM) | 1600 µg/mL (≈ 4100 µM) | 3200 µg/mL (≈ 8210 µM) | 800 µg/mL (≈ 2050 µM) | 800 µg/mL (≈ 2050 µM) | 800 µg/mL (≈ 2050 µM) | 800 µg/mL (≈ 2050 µM) | Cc1nc(SCC(=O)c2ccc(F)cc2)n(Nc2ccc(Cl)cc2)c1C
400 µg/mL (≈ 917 µM) | 800 µg/mL (≈ 1830 µM) | 800 µg/mL (≈ 1830 µM) | 400 µg/mL (≈ 917 µM) | 800 µg/mL (≈ 1830 µM) | 400 µg/mL (≈ 917 µM) | 800 µg/mL (≈ 1830 µM) | 800 µg/mL (≈ 1830 µM) | 800 µg/mL (≈ 1830 µM) | 800 µg/mL (≈ 1830 µM) | 800 µg/mL (≈ 1830 µM) | COc1ccc(Nn2c(SCC(=O)c3ccc(Cl)c(Cl)c3)nc(C)c2C)cc1
400 µg/mL (≈ 1130 µM) | 400 µg/mL (≈ 1130 µM) | 400 µg/mL (≈ 1130 µM) | 800 µg/mL (≈ 2250 µM) | 400 µg/mL (≈ 1130 µM) | 400 µg/mL (≈ 1130 µM) | 400 µg/mL (≈ 1130 µM) | 400 µg/mL (≈ 1130 µM) | 400 µg/mL (≈ 1130 µM) | 400 µg/mL (≈ 1130 µM) | 200 µg/mL (≈ 563 µM) | Cc1nc(SCC(=O)c2cccc(F)c2)n(Nc2ccccc2)c1C
800 µg/mL (≈ 2280 µM) | 400 µg/mL (≈ 1140 µM) | 400 µg/mL (≈ 1140 µM) | 800 µg/mL (≈ 2280 µM) | 200 µg/mL (≈ 569 µM) | 400 µg/mL (≈ 1140 µM) | 800 µg/mL (≈ 2280 µM) | 800 µg/mL (≈ 2280 µM) | 800 µg/mL (≈ 2280 µM) | 800 µg/mL (≈ 2280 µM) | 400 µg/mL (≈ 1140 µM) | Cc1ccc(Nn2c(SCC(=O)c3ccccc3)nc(C)c2C)cc1
400 µg/mL (≈ 984 µM) | 800 µg/mL (≈ 1970 µM) | 400 µg/mL (≈ 984 µM) | 800 µg/mL (≈ 1970 µM) | 800 µg/mL (≈ 1970 µM) | 400 µg/mL (≈ 984 µM) | 800 µg/mL (≈ 1970 µM) | 800 µg/mL (≈ 1970 µM) | 800 µg/mL (≈ 1970 µM) | 800 µg/mL (≈ 1970 µM) | 800 µg/mL (≈ 1970 µM) | Cc1nc(SCC(=O)c2cccc(Cl)c2)n(Nc2ccc(Cl)cc2)c1C
800 µg/mL (≈ 2100 µM) | 800 µg/mL (≈ 2100 µM) | 400 µg/mL (≈ 1050 µM) | 800 µg/mL (≈ 2100 µM) | 200 µg/mL (≈ 524 µM) | 800 µg/mL (≈ 2100 µM) | 400 µg/mL (≈ 1050 µM) | 400 µg/mL (≈ 1050 µM) | 400 µg/mL (≈ 1050 µM) | 800 µg/mL (≈ 2100 µM) | 200 µg/mL (≈ 524 µM) | COc1cccc(C(=O)CSc2nc(C)c(C)n2Nc2ccc(C)cc2)c1
1600 µg/mL (≈ 4330 µM) | 1600 µg/mL (≈ 4330 µM) | 1600 µg/mL (≈ 4330 µM) | 1600 µg/mL (≈ 4330 µM) | 1600 µg/mL (≈ 4330 µM) | 1600 µg/mL (≈ 4330 µM) | 1600 µg/mL (≈ 4330 µM) | 1600 µg/mL (≈ 4330 µM) | 1600 µg/mL (≈ 4330 µM) | 1600 µg/mL (≈ 4330 µM) | 1600 µg/mL (≈ 4330 µM) | Cc1ccc(Nn2c(SCC(=O)c3ccc(F)cc3)nc(C)c2C)cc1
800 µg/mL (≈ 2080 µM) | 800 µg/mL (≈ 2080 µM) | 400 µg/mL (≈ 1040 µM) | 800 µg/mL (≈ 2080 µM) | 800 µg/mL (≈ 2080 µM) | 1600 µg/mL (≈ 4150 µM) | 400 µg/mL (≈ 1040 µM) | 800 µg/mL (≈ 2080 µM) | 400 µg/mL (≈ 1040 µM) | 800 µg/mL (≈ 2080 µM) | 400 µg/mL (≈ 1040 µM) | COc1ccc(Nn2c(SCC(=O)c3ccc(F)cc3)nc(C)c2C)cc1
400 µg/mL (≈ 1080 µM) | 400 µg/mL (≈ 1080 µM) | 800 µg/mL (≈ 2170 µM) | 800 µg/mL (≈ 2170 µM) | 800 µg/mL (≈ 2170 µM) | 200 µg/mL (≈ 541 µM) | 400 µg/mL (≈ 1080 µM) | 400 µg/mL (≈ 1080 µM) | 800 µg/mL (≈ 2170 µM) | 800 µg/mL (≈ 2170 µM) | 400 µg/mL (≈ 1080 µM) | Cc1ccc(Nn2c(SCC(=O)c3cccc(F)c3)nc(C)c2C)cc1
